For test [1], the system named is CYP-induced visceral pain. In words: Acute administration in CYP-induced visceral pain in rats (Von Frey mechanical threshold). The class given is in vivo, rat. On the procedure:
Female Sprague Dawley rats (Crl:CD(SD)BR, 250-350 g) from Charles River Italy were used in these experiments. Animals were housed with free access to food and water and maintained on a forced 12 hours light-dark cycle at 22-24° C. for at least one week before the experiments were carried out. The animals were handled according to internationally accepted principles for care of laboratory animals (E.E.C. Council Directive 86/609, […]. 18, 1986). Cyclophosphamide, 75 mg/kg i.p. for 3 times, every 3rd day, was dissolved in distilled water and administered to animals by i.p. route (volume 5 mL/kg). Appropriate weight of Compd. 1 or Compd. 2 was dissolved in saline, all doses of test compounds were administered by oral gavage (volume 2 mL/kg). On the day of the experiment, each rat was placed individually in a clear plastic testing box with a grid floor and allowed to acclimatize for at least 10 min. Visceral sensitivity in response to mechanical stimuli was determined using Von Frey monofilaments (1-2-4-8-15-26-60-100 g) applied in the lower abdominal area (close to the urinary bladder) and on both hind paws plantar surface (to evaluate referred pain). Each Von Frey monofilament was applied 5 times at the level of abdomen and 3 times at the level of each paw, in an ascending order of strength at interval of 5 sec. A stimulus-induced response was considered positive when the paw was sharply withdrawn, paw licking occurred, or the animal flinched upon removal of the filament. Behavioral testing on animals was performed at 3 different times: • before CYP administration (in order to acquire basal values) • after CYP administration, before treatment with the test compound, to verify the pathology (in order to acquire pre-treatment values) • after CYP administration, after treatment (in order to acquire post-treatment values) […] The test was performed in blind. Compd. 1 and Compd. […]

A further test concerns CYP-induced cystitis. Briefly: Cystometrographic recordings in conscious rats with CYP-induced cystitis. The class given is in vivo, rat. The conditions noted are these: for bladder volume capacity (BVC): 24 hours after CYP 175 mg/kg i.p. On the procedure: Female Sprague Dawley rats (Crl:CD(SD)BR, 250-350 g bw) from Charles River Italy were used in these experiments. Animals were housed with free access to food and water and maintained on a forced 12 hours light-dark cycle at 22-24° C. for at least one week before the experiments were carried out.
Rats, anaesthetized with equithensin solution (2 ml/kg i.p.), were placed in a supine position and an approximately 10 mm midline incision was made in the shaved and cleaned abdominal wall. The urinary bladder was gently freed from adhering tissues, emptied and then cannulated, via an incision at the dome, with a polyethylene cannula (Portex, ID 0.58 mm, OD 0.96 mm), which was permanently sutured with silk thread. The cannula was exteriorized through a subcutaneous tunnel in the retroscapular area, where it was connected with a plastic adapter, in order to avoid the risk of removal by the animal.
For drugs testing, rats were utilized one day after catheter implantation at about 24 hours after administrations CYP.
On the day of the experiment, the rats (fasted overnight) were placed in Bollman's cages; after a stabilization period of 20 min, the free tip of the cannula was connected by a T-shape tube to a pressure transducer and to a peristaltic pump for a continuous infusion of saline solution (room temperature) into the urinary bladder, at the constant rate of 0.05 ml/min. This procedure, termed cystometry, allows the detection of continuous cycles of filling and voiding of the bladder named cystometrograms.
From the cystometrograms acquired by the Biopac System and recorded on a PC the Bladder Volume Capacity (BVC) parameter was calculated as volume capacity, defined as volume (in ml) infused into the bladder and necessary to induce detrusor contraction followed micturition.
Basal BVC was evaluated as mean values from the cystometrograms recorded in 30-60 minutes of time prior the treatment (“BASAL”). Then the bladder infusion was stopped, the animals were treated orally with the test compound or vehicle and, after restarting continuous bladder filling with saline for 4 or 5 hours, BVC values after administration were collected.
BVC parameters were recorded from the cystometrogram over a 4/5 hours period post-dose.

“Also recorded” adds a separate entry of the source.

On to `C[C@H](C(=O)O)c1ccc(Nc2nc(C(F)(F)F)cs2)cc1` [Compd. 1, (2S)-2-(4-{[4-(trifluoromethyl)-1,3-thiazol-2-yl]amino}phenyl) propanoic acid], for which the “withdrawal thresholds, abdomen and hind paws” value in test [1] (1 mg/kg p.o., 2 hours after administration, versus pre-treatment) was “not significantly different from the pretreatment values”. Moreover, the “mechanical threshold, abdomen and hind paws” value in test [1] (3 mg/kg p.o., 2 hours after administration, versus pre-treatment) is “statistical significant increase of mechanical threshold in both the areas evaluated”; in test [1] (7 mg/kg p.o., 2 hours after administration, versus pre-treatment), “statistical significant reduction of painful hypersensitivity in both the abdominal and plantar surface”; in test [1] (10 mg/kg p.o., 2 hours after administration, versus pre-treatment), “statistically significant increase in mechanical threshold in both the abdomen and paws area; also recorded: statistical significant reduction of painful hypersensitivity in both the abdominal and plantar surface”; in test [1] (30 mg/kg p.o., 2 hours after administration, versus pre-treatment) it was “statistically significant increase in mechanical threshold in both the abdomen and paws area”. This molecule yielded an MED in test [1] (p.o., acute administration) of 3 mg/kg. Also, the “bladder volume capacity (BVC)” value in the test on CYP-induced cystitis (10 mg/kg oral) was “did not induce any changes of BVC”; with CYP-induced cystitis (20 mg/kg oral) it was “moderate increase of BVC statistically different from vehicle and pre-drug treatment at 4 and 5 hours”; in the test with CYP-induced cystitis (30 mg/kg oral) it was “sustained increase of BVC”. Moreover, in the test on CYP-induced cystitis (30 mg/kg oral, significant at 3 and 4 hours after treatment), the “increase of BVC” value is recorded as “up to +40%”. For the same molecule, the MP result with CYP-induced cystitis (20 and 30 mg/kg oral) is “inactive on MP”.

For the origin of these results see patent US12150933B2, “IL-8 inihibitors for use in the treatment of some urological disorders” (DOMPÉ FARMACEUTICI S.P.A., priority 2015, dated 2024).
